Data published in patent US20210275514A1, “COMPOUNDS FOR USE IN TREATING KIDNEY DISORDERS” (Hoffmann-La Roche Inc., priority 2018, published 2021).
Entries after “also recorded” stand apart in the source; their conditions may differ.

Test system: ABCA1
Assay: ABCA1 expression by western blot in differentiated podocytes
Type: cell-based, human
Conditions: 18 h
Procedure: Podocytes differentiated for 14 days were starved in RPMI-0.2% FBS for 18 h and then treated with freshly prepared dilutions of compounds in full media for 18 h at 37° C. and 5% CO2. Compound concentrations of 1 μM, 5 μM and 10 μM were evaluated. Cells were then washed with PBS and lysed with 1× cell lysis buffer (Cell Signaling) supplemented with protease and phosphatase inhibitor cocktails (Roche). Total protein content was determined by BCA method (Pierce, Thermoscientific). ABCA1 expression was analyzed by western blot.
Lysates, or cell fractions were incubated with buffer sample at 55° C. for 10 min under reducing conditions. A total of […] of protein in lysates, and one third of the volume collected in cell fraction preps, were separated by SDSPAGE in 4-20% gels (Biorad) and proteins were then transferred to PVDF membranes. Membranes were blocked with 5% milk and blotted with protein-specific antibodies for 18 h at 4° C. The following antibodies were used: mouse anti-ABCA1 (Abcam; 1:1,000), rabbit anti-GAPDH antibody (Millipore; 1:10,000), rabbit anti-MEK and anti-Na^+/K^+ ATPase (Cell Signaling; 1:1,000). After washing with PBS-T, membranes were incubated with anti-mouse and anti-rabbit specific antibodies conjugated to HRP (Promega) 1:10,000 in 5% milk. Membranes were washed and signal was developed using Western bright ECL substrate (Advansta).

SMILES | ABCA1 expression (western blot, whole cell lysates) (1 μM, 5 μM and 10 μM evaluated) | ABCA1 expression (western blot, whole cell lysates) (doses as low as 1 uM, FIG. 4A)
O=C(Nc1cncnc1)c1ccc(OCC(F)(F)F)c(-c2ccc(Cl)cc2)n1 [Cpd F, 6-(4-chlorophenyl)-N-(pyrimidin-5-yl)-5-(2,2,2-trifluoroethoxy)picolinamide] | only Cpd A, and Cpd G, increased ABCA1 expression | –
Cc1nnc([C@](F)([C@H]2Cc3[nH]c4ccc(Cl)cc4c3C2)S(=O)(=O)c2ccccc2)o1 [Cpd E, (R)-2-[(S)-Benzenesulfonyl-fluoro-(5-methyl-[1,3,4]oxadiazol-2-yl)-methyl]-7-chloro-1,2,3,4-tetrahydro-cyclopenta[b]indole] | – | strong induction; also recorded: markedly increased
O=C(O)c1ccc(-c2nnc([C@](F)([C@H]3Cc4[nH]c5ccc(Cl)cc5c4C3)S(=O)(=O)c3cccc(Br)c3)o2)cc1 (racemic) [Cpd D, 4-{5-[(RS)-(3-Bromo-benzenesulfonyl)-((SR)-7-chloro-1,2,3,4-tetrahydro-cyclopenta[b]indol-2-yl)-fluoro-methyl]-[1,3,4]oxadiazol-2-yl}-benzoic acid] | – | strong induction; also recorded: markedly increased
